Consider two molecules from patent US20200278355A1, “CONJUGATED PROTEINS AND USES THEREOF” (THE SCRIPPS RESEARCH INSTITUTE, priority 2017, published 2020).

Assay [1] relates to cysteines in NSCLC cell proteomes (H460 cells). The assay can be described thus: isoTOP-ABPP of compound-treated H460 cells, proteome-wide. The class given is cell-based, human. Conditions: KEAP1-mutant NSCLCs. The protocol:
For analysis of NR0B1 ligands or control compound reactivity, H460 cells or H460 cells expressing luciferase in a 10 cm plate were incubated with indicated compounds in serum/dye-free RPMI for 3 hours at 37° C. Cells were washed once ice-cold PBS and lysed in 1% Triton X-100 dissolved in PBS with protease inhibitors (Sigma) by sonication. Samples were clarified by centrifugation for 10 min at 16,000×g. Lysate was adjusted to 1.5 mg ml^−1 in 500 μL.
Samples were labeled for 1 h at ambient temperature with 100 μM iodoacetamide alkyne (1, IA-alkyne, 5 μL of 10 mM stock in DMSO). Samples were conjugated by copper-catalyzed azide-alkyne cycloaddition (CuAAC) to isotopically labeled, TEV-cleavable tags (TEV-tags). Heavy CuAAC reaction mixtures was added to the DMSO-treated or shGFP control samples and light CuAAC reaction mixture was added to compound-treated or shNRF2 samples. The CuAAC reaction mixture consisted of TEV tags (light or heavy, 10 μL of 5 mM stocks in DMSO, final concentration=100 μM), 1 mM tris(2-carboxyethyl)phosphine hydrochloride (TCEP; fresh 50× stock in water, final concentration=1 mM), ligand (17× stock in DMSO:t-butanol 1:4, final concentration=100 μM) and 1 mM CuSO4 (50× stock in water, final concentration=1 mM). The samples were allowed to react for 1 h at which point the samples were centrifuged (16,000×g, 5 min, 4° C.). […]

The target of assay [2] is T1, ALDH1A1 (Homo sapiens, UniProt P00352).
T1 construct: Isotopically labeled H460 cell lines were generated as described above; endogenous in cells; host or cells: H460 (SILAC-labelled)
T1 sequence (P00352 whole entry): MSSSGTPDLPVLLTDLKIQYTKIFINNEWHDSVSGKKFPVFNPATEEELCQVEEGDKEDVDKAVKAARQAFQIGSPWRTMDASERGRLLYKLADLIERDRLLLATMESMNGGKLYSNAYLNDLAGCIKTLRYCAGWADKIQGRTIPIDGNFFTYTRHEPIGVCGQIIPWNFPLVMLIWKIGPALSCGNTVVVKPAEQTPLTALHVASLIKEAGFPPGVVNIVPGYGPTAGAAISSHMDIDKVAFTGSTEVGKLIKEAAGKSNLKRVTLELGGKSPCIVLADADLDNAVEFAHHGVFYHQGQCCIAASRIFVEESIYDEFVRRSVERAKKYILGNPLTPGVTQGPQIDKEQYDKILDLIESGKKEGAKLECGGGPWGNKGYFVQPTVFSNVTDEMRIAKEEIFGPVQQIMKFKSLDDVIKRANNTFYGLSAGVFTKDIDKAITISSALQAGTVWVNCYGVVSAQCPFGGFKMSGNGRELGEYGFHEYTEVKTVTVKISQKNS
In words: ABPP-SILAC BPK-29yne competition in H460 cells: ALDH1A1. The class given is cell-based. Conditions: 20 μM. The protocol:
Isotopically labeled H460 cell lines were generated as described above. Light and heavy cells were treated with compounds (20 μM) or DMSO, respectively, for 3 h, followed by labeling with the BPK-29yne (5 μM) for 30 min. Cells were washed once ice-cold PBS and lysed in 1% Triton 100-X dissolved in PBS with protease inhibitors (Sigma) by sonication. Lysate was adjusted to 1.5 mg ml^−1 in 500 μL. Samples were conjugated by CuAAC to Biotin-PEG4-azide (5 μL of 10 mM stocks in DMSO, final concentration=100 μM). CuAAC “click” mix contained TCEP, TBTA ligand and CuSO4 as detailed for isoTOP-ABPP sample preparation. Samples were further processed as detailed in: isoTOP-ABPP streptavidin enrichment and isoTOP-ABPP trypsin TEV digestion with the following exception: after overnight incubation at 37° C. with trypsin, tryptic digests were separated from the beads with Micro Bio-Spin columns (Bio-Rad) by centrifugation (1,000×g, 1 min). Beads were rinsed once with water (200 μL) and combined with tryptic digests. […]
The MS2 spectra data were extracted and searched using RAW Convertor and ProLuCID algorithm as described in isoTOP-ABPP peptide and protein quantification. […] Ratios of heavy/light (DMSO/test compound) peaks were calculated using in-house CIMAGE software. […] The mean R values and standard deviation for multiple biological experiments were calculated from the average ratios from each replicate. […]

SMILES strings stand for the structures.

For `O=C(c1ccc(N2CCOCC2)cc1)N1CCCC(N(Cc2ccccc2)C(=O)CCl)CC1` (stereo not drawn) [BPK-29, N-benzyl-2-chloro-N-(1-(4-morpholinobenzoyl)azepan-4-yl)acetamide], the overall proteomic selectivity entry in assay [1] was “good overall proteomic selectivity”. Besides, in assay [2], the “BPK-29-competed BPK-29yne analysis” value was “Yes (Competed defined as showing R value ≥ 2.5 at 20 μM of test compound)”.
On to `O=C(CCl)N(Cc1cccc(Cl)c1F)c1ccc(Cl)nc1` [BPK-26, 2-chloro-N-(3-chloro-2-fluorobenzyl)-N-(6-chloropyridin-3-yl)acetamide], for which the overall proteomic selectivity entry in assay [1] was “good overall proteomic selectivity”.
